We go through 37 molecules from patent US20170143701A1, “CARBOHYDRATE METABOLISM-AMELIORATING AGENT” (SUNTORY HOLDINGS LIMITED, priority 2014, published 2017).

In the experiment the test system is NCI-H716 cells. Kind of experiment: In vitro GLP-1 secretion-accelerating action: amount of active GLP-1 secreted (ELISA). Format: cell-based. The note with it: 1 hour; for Significant difference (p < 0.05) vs control group, amount of active GLP-1 secreted: 10 mM, Student's t-test; for Amount of active GLP-1 secreted (relative value to control group as 100), average value: cyclic dipeptide 10 mM with 10 μM Sitagliptin phosphate, group with no cyclic dipeptide = 100. How it is done:
Among the cyclic dipeptides, 92 highly water-soluble cyclic dipeptides were used in the following experiment. In each well of a Poly-L-Lysine 96-well plate, NCI-H716 cells suspended in 100 μL of a DMEM (with 10% FBS, 2 mM glutamine, and 1% antibiotics added in advance) were seeded at 0.5×10^5 cells/well, and cultured in a CO2 incubator (manufactured by ESPEC CORP.) for 48 hours. After washing with PBS(+), 100 μL of a PBS(+) solution with each cyclic dipeptide at a final concentration of 10 mM and 10 μM of Sitagliptin phosphate added therein was added to the cells. After 1 hour, the resultant solution was recovered, and the amount of active GLP-1 in the solution was measured by using the ELISA kit. In the analysis, the amount of active GLP-1 for a group with no cyclic dipeptide added was defined as 100, and relative values thereto were used.

`O=C1C2CC(O)CN2C(=O)C2CCCN12` (centres unmarked) [compound 74, Cyclo(Hyp-Pro)]: under “Table 2, Experiment 2”, the “Significant difference (p < 0.05) vs control group, amount of active GLP-1 secreted” value is reported as “No” and the “Amount of active GLP-1 secreted (relative value to control group as 100), average value” amounted to 115.
The corresponding values for `O=C1NC(Cc2c[nH]c3ccccc23)C(=O)NC1CO` (centres unmarked) [compound 78, Cyclo(Trp-Ser)] are “No” and 119.
As for `NCCCCC1NC(=O)CNC1=O` (centres unmarked) [compound 96, cyclo-lysyl-glycine], where the note is “Table 3, Experiment 3”, the “Significant difference (p < 0.05) vs control group, amount of active GLP-1 secreted” value is on record as “Yes” and the “Amount of active GLP-1 secreted (relative value to control group as 100), average value” came to 133.
For `NCCCC[C@@H]1NC(=O)[C@H](CCC(=O)O)NC1=O` [compound 97, Cyclo(Glu-Lys)], under “Table 3, Experiment 3”, the “Significant difference (p < 0.05) vs control group, amount of active GLP-1 secreted” value is reported as “No” and the “Amount of active GLP-1 secreted (relative value to control group as 100), average value” is recorded as 66.
The like results for `NCCCC[C@@H]1NC(=O)[C@H](CO)NC1=O` [compound 98, cyclo-seryl-lysine] were, in that order, “Yes” and 71.
The corresponding values for `CC(C)[C@@H]1NC(=O)[C@H](CCCCN)NC1=O` [compound 99, cyclo-valyl-lysine] are “Yes” and 532.
The like results for `NCCCCC1NC(=O)C(CC(=O)O)NC1=O` (centres unmarked) [compound 100, Cyclo(Asp-Lys)] were, in that order, “No” and 116.
As to `NCCCC[C@@H]1NC(=O)[C@H](CC(N)=O)NC1=O` [compound 101, cyclo-asparaginyl-lysine], where the note is “Table 3, Experiment 3”, the “Significant difference (p < 0.05) vs control group, amount of active GLP-1 secreted” value was “Yes” and the “Amount of active GLP-1 secreted (relative value to control group as 100), average value” is listed as 250.
The corresponding values for `NCCCC[C@@H]1NC(=O)[C@H](CCC(N)=O)NC1=O` [compound 102, Cyclo(Gln-Lys)] are “No” and 112.
The corresponding values for `O=C1NC(Cc2cnc[nH]2)C(=O)NC1Cc1cnc[nH]1` (centres unmarked) [compound 107, cyclo-histidyl-histidine] are “Yes” and 182.
The like results for `CC(O)C1NC(=O)C(Cc2cnc[nH]2)NC1=O` (centres unmarked) [compound 109, cyclo-threonyl-histidine] were, in that order, “Yes” and 290.
Regarding `O=C(O)CC1NC(=O)C(Cc2cnc[nH]2)NC1=O` (centres unmarked) [compound 110, cyclo-aspartyl-histidine], where the note is “Table 3, Experiment 3”, the “Significant difference (p < 0.05) vs control group, amount of active GLP-1 secreted” value is listed as “Yes” and the “Amount of active GLP-1 secreted (relative value to control group as 100), average value” was determined as 340.
As for `NC(=O)C[C@@H]1NC(=O)[C@H](Cc2cnc[nH]2)NC1=O` [compound 111, cyclo-asparaginyl-histidine], under “Table 3, Experiment 3”, the “Significant difference (p < 0.05) vs control group, amount of active GLP-1 secreted” value is on record as “Yes” and the “Amount of active GLP-1 secreted (relative value to control group as 100), average value” is given as 341.
The corresponding values for `NC(N)=NCCC[C@@H]1NC(=O)[C@H](Cc2cnc[nH]2)NC1=O` [compound 112, Cyclo(Arg-His)] are “No” and 106.
The corresponding values for `C[C@@H]1NC(=O)[C@H](CCC(=O)O)NC1=O` [compound 113, Cyclo(Glu-Ala)] are “No” and 157.
The like results for `CC1NC(=O)C(C(C)O)NC1=O` (centres unmarked) [compound 114, Cyclo(Thr-Ala)] were, in that order, “No” and 89.
Regarding `CC(O)C1NC(=O)CNC1=O` (centres unmarked) [compound 116, Cyclo(Thr-Gly)], where the note is “Table 3, Experiment 3”, the “Significant difference (p < 0.05) vs control group, amount of active GLP-1 secreted” value is “No” and the “Amount of active GLP-1 secreted (relative value to control group as 100), average value” was 146.
The like results for `NC(N)=NCCC[C@@H]1NC(=O)CNC1=O` [compound 117, Cyclo(Arg-Gly)] were, in that order, “No” and 98.
Take `CC1NC(=O)CNC1=O` (centres unmarked) [compound 121, Cyclo(Gly-Ala)]: for the setting “Table 3, Experiment 3”, the “Significant difference (p < 0.05) vs control group, amount of active GLP-1 secreted” value is listed as “No” and the “Amount of active GLP-1 secreted (relative value to control group as 100), average value” amounted to 153.
The corresponding values for `C[C@@H]1NC(=O)[C@H](CC(N)=O)NC1=O` [compound 124, Cyclo(Asn-Ala)] are “No” and 116.
The like results for `NC(=O)CC[C@@H]1NC(=O)CNC1=O` [compound 126, cyclo-glutaminyl-glycine] were, in that order, “Yes” and 210.
The like results for `NC(=O)C[C@@H]1NC(=O)[C@H](CCC(=O)O)NC1=O` [compound 129, Cyclo(Asn-Glu)] were, in that order, “No” and 118.
In the case of `NC(=O)CC[C@@H]1NC(=O)[C@H](CCC(=O)O)NC1=O` [compound 130, Cyclo(Gln-Glu)], under “Table 3, Experiment 3”, the “Significant difference (p < 0.05) vs control group, amount of active GLP-1 secreted” value is given as “No” and the “Amount of active GLP-1 secreted (relative value to control group as 100), average value” is reported as 120.
The like results for `NC(=O)CC[C@@H]1NC(=O)[C@H](CO)NC1=O` [compound 136, Cyclo(Gln-Ser)] were, in that order, “No” and 251.
The like results for `CC(O)C1NC(=O)C(CCCCN)NC1=O` (centres unmarked) [compound 143, Cyclo(Thr-Lys)] were, in that order, “No” and 105.
The like results for `C[C@@H]1NC(=O)[C@H](CC(=O)O)NC1=O` [compound 153, Cyclo(Asp-Ala)] were, in that order, “No” and 94.
As for `O=C1CNC(=O)[C@H](CO)N1` [compound 154, Cyclo(Ser-Gly)], for the setting “Table 3, Experiment 3”, the “Significant difference (p < 0.05) vs control group, amount of active GLP-1 secreted” value is listed as “No” and the “Amount of active GLP-1 secreted (relative value to control group as 100), average value” was found to be 116.
Consider `CC(O)C1NC(=O)C(CCC(=O)O)NC1=O` (centres unmarked) [compound 157, Cyclo(Thr-Glu)], for which, where the note is “Table 3, Experiment 3”, the “Significant difference (p < 0.05) vs control group, amount of active GLP-1 secreted” value was “No” and the “Amount of active GLP-1 secreted (relative value to control group as 100), average value” is listed as 139.
The corresponding values for `NC(N)=NCCC[C@@H]1NC(=O)[C@H](CO)NC1=O` [compound 159, cyclo-arginyl-serine] are “Yes” and 135.
Regarding `C[C@H](O)[C@@H]1NC(=O)[C@H](CC(=O)O)NC1=O` [compound 165, Cyclo(Asp-Thr)], for the setting “Table 3, Experiment 3”, the “Significant difference (p < 0.05) vs control group, amount of active GLP-1 secreted” value is on record as “No” and the “Amount of active GLP-1 secreted (relative value to control group as 100), average value” is on record as 140.
The corresponding values for `C[C@H](O)[C@@H]1NC(=O)[C@H](CC(N)=O)NC1=O` [compound 166, Cyclo(Asn-Thr)] are “No” and 149.
The corresponding values for `C[C@H](O)[C@@H]1NC(=O)[C@H](CCC(N)=O)NC1=O` [compound 167, Cyclo(Gln-Thr)] are “No” and 156.
With `C[C@H](O)[C@@H]1NC(=O)[C@H](CCCN=C(N)N)NC1=O` [compound 168, Cyclo(Arg-Thr)], under “Table 3, Experiment 3”, the “Significant difference (p < 0.05) vs control group, amount of active GLP-1 secreted” value is “No” and the “Amount of active GLP-1 secreted (relative value to control group as 100), average value” was 142.
The like results for `NC(=O)C[C@@H]1NC(=O)[C@H](CC(=O)O)NC1=O` [compound 170, Cyclo(Asn-Asp)] were, in that order, “No” and 125.
The like results for `NC(=O)CCC1NC(=O)C(CC(=O)O)NC1=O` (centres unmarked) [compound 171, Cyclo(Gln-Asp)] were, in that order, “No” and 120.
Turning to `CSCCC1NC(=O)C(CC(=O)O)NC1=O` (centres unmarked) [compound 172, Cyclo(Met-Asp)], where the note is “Table 4, Experiment 4”, the “Significant difference (p < 0.05) vs control group, amount of active GLP-1 secreted” value is “No” and the “Amount of active GLP-1 secreted (relative value to control group as 100), average value” stood at 141.
The like results for `CSCCC1NC(=O)C(CC(N)=O)NC1=O` (centres unmarked) [compound 175, cyclo-asparaginyl-methionine] were, in that order, “Yes” and 218.
